Results published in patent US4950686A, “Anti-mycoplasma agent” (Shionogi & Co., Ltd., priority 1986, dated 1990).
≈ marks a conversion by molar mass, not a printed value.

Experiments:
[1] = tested on: Mycoplasma gallisepticum S6 (standard strain); experiment: Mycoplasma gallisepticum air-sac infection method in chicken, strain S6; format: in vivo, Mycoplasma gallisepticum; SPF chicken (white leghorn); conditions: 100 mg/kg × once oral, 10 mg/ml sol. b; for Change of air-sac, left: + (chickens) / Change of air-sac, left: ++ (chickens) / Change of air-sac, left: +++ (chickens) / Change of air-sac, left: - (chickens) / Change of air-sac, right: + (chickens) / Change of air-sac, right: ++ (chickens) / Change of air-sac, right: +++ (chickens) / Change of air-sac, right: - (chickens) / Isolation, L (left air-sac) / Isolation, R (right air-sac) / Isolation, T (trachea) / Mycoplasma Isolated Chickens: inoculum 1.2 × 10^6; for Index of Isolation: inoculum 1.2 × 10^6, range 0-6.0; for Index of Disease: inoculum 1.2 × 10^6, range 0-9.0
Description: (§1) (2) Test of Effectiveness Mycoplasma gallisepticum air-sac infection method
(§2) Inoculation: To the right air-sac of 9 days old SPF chicken (a white leghorn) which has abstained from water and feed one day before is inoculated 0.20-0.25 ml/chicken of fresh mycoplasma culture incubated for 24-48 hr and diluted with broth (usually 100 times). The concentration in Table 2 is shown in a unit of mg/ml.
(§3) Medium: Chick PPLO broth supplemented with 15% equine serum (Eiken Kagaku Co., Ltd.)
(§4) Administration: A compound of this invention dissolved or suspended in the following solution is orally and forcibly administered once by a cannula immediately after the infection.
(§5) Anatomization and Isolation of Microorganism: The chickens are anatomized 5 days after the infection, and the right and left air sacs are investigated whether they are attacked with a disease or not. The change caused by the disease is represented in four degrees; -: no change, +: slight, ++: medium and +++: serious. Microorganism is isolated from the right and left air-sacs and the trachea by using a sterilized applicator.
(§6) Judgement: Judgement is done through an index of an air-sac disease and an index of a microorganism-isolation.
(§7) Index of an air-sac-disease: First, indexes in the right and left air-sacs are separately calculated according to the following formula;
(§8) {degree of disease (0-3)×chickens}/anatomized chickens
(§9) and the index is calculated by the following formula;
(§10) (index of right air-sac)×1+(index of left air-sac)×2
(§11) Index of a microorganism isolation:
(§12) P: chickens from the right air-sac of which microorganism is isolated,
(§13) Q: chickens from the trachea of which microorganism is isolated,
(§14) R: chickens from the left air-sac of which microorganism is isolated, and
(§15) S: chickens investigated.

[2] = tested on: Mycoplasma gallisepticum MR-1 (wild strain, tylosin-resistant); experiment: Anti-mycoplasma activity in vitro (MIC, broth dilution), strain MR-1; format: cell-based; conditions: Mycoplasmoides gallisepticum, 168 h, Mg MR-1, 37° C., 7 days; read-out: MIC
Description: (§16) (1) Anti-mycoplasma activity test in vitro
(§17) MIC values of each of Tropolones were measured on the following strains according to the following method.
(§18) (a) Mycoplasma gallisepticum
MR-1 (wild strain, tylosin-resistant)
(§19) Medium: Chick PPLO broth supplemented with 20% equine serum (Eiken Kagaku Co., Ltd.)
(§20) Method: Broth dilution method
(§21) Inoculum: Culture incubated at 37° C. for 24-48 hr which is diluted with broth to 10^6 CCU/ml immediately before the use.
(§22) To 1.6 ml of the broth is added 0.2 ml of an agent which has been subjected to 2-fold dilution and then added 0.2 ml of inoculum, which is incubated at 37° C. for 7 days.

[3] = tested on: Mycoplasma hyopneumoniae ST-11 (standard strain); experiment: Anti-mycoplasma activity in vitro (MIC, broth dilution), strain ST-11; format: cell-based; conditions: Mesomycoplasma hyopneumoniae, Mh ST-11; read-out: MIC
Description: as §16, §17
(b) Mycoplasma hyopneumoniae
Strain: ST-11 (standard strain)
Medium: 850 ml of Hanks' solution supplemented with 0.5% lactoalbumin, 50 ml of 25% yeast, 100 ml of equine serum and 4-6 ml of 0.5% phenol red (pH 7.4-7.6)
as §20
Inoculum: Culture which is incubated for 3-4 days and diluted 10 times with the broth if color of the broth becomes yellow then. If it needs over 4 days until color of the broth becomes yellow, it is further subcultured. This is diluted 10 times with the broth to give inoculum.
Assay is done in the same manner as in the above (a).

[4] = tested on: Mycoplasma gallisepticum S6 (standard strain); experiment: Anti-mycoplasma activity in vitro (MIC, broth dilution), strain S6; format: cell-based; conditions: Mycoplasmoides gallisepticum, 168 h, Mg S6, 37° C., 7 days; read-out: MIC
Description: as §16, §17, §18, §19, §20, §21, §22

[5] = tested on: Mycoplasma gallisepticum T-7-T (wild strain, tylosin-resistant); experiment: Mycoplasma gallisepticum air-sac infection method in chicken, strain T-7-T;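 on Index of Isolation: index = (P×1 + Q×2 + R×3)/S with range 0 to 6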; format: in vivo, Mycoplasma gallisepticum; SPF chicken (white leghorn); conditions: 100 mg/kg × once oral, 10 mg/ml sol. b; for Change of air-sac, left: + (chickens) / Change of air-sac, left: ++ (chickens) / Change of air-sac, left: +++ (chickens) / Change of air-sac, left: - (chickens) / Change of air-sac, right: + (chickens) / Change of air-sac, right: ++ (chickens) / Change of air-sac, right: +++ (chickens) / Change of air-sac, right: - (chickens) / Isolation, L (left air-sac) / Isolation, R (right air-sac) / Isolation, T (trachea) / Mycoplasma Isolated Chickens: inoculum 10^2; for Index of Isolation: inoculum 10^2, range 0-6.0; for Index of Disease: inoculum 10^2, range 0-9.0
Description: as §1
(§23) T-7-T (wild strain, tylosin-resistant)
as §2, §3, §4, §5, §6, §7, §8, §9, §10, §11, §12, §13, §14, §15

[6] = tested on: Mycoplasma gallisepticum T-7-T (wild strain, tylosin-resistant); experiment: Anti-mycoplasma activity in vitro (MIC, broth dilution), strain T-7-T; format: cell-based; conditions: Mycoplasmoides gallisepticum, 168 h, Mg T-7-T, 37° C., 7 days; read-out: MIC
Description: as §16, §17, §18, §23, §19, §20, §21, §22

MIC [2] [µg/mL] | MIC [3] [µg/mL] | MIC [4] [µg/mL] | SMILES | Change of air-sac, left: + (chickens) [1] | Change of air-sac, left: ++ (chickens) [1] | Change of air-sac, left: +++ (chickens) [1] | Change of air-sac, left: - (chickens) [1] | Change of air-sac, right: + (chickens) [1] | Change of air-sac, right: ++ (chickens) [1] | Change of air-sac, right: +++ (chickens) [1] | Change of air-sac, right: - (chickens) [1] | Isolation, L (left air-sac) [1] | Isolation, R (right air-sac) [1] | Isolation, T (trachea) [1] | Mycoplasma Isolated Chickens [1] | Index of Isolation [1] | Index of Disease [1] | Change of air-sac, left: + (chickens) [5] | Change of air-sac, left: ++ (chickens) [5] | Change of air-sac, left: +++ (chickens) [5] | other results
0.78 (≈ 3.07 µM) | 0.39 (≈ 1.53 µM) | 0.39 (≈ 1.53 µM) | O=C1OC(Oc2cccccc2=O)c2ccccc21 (stereo not shown) [Compound 23, O-(1,3-Dihydro-3-oxo-1-isobenzofuranyl)tropolone] | 0 | 0 | 0 | 8 | 0 | 0 | 0 | 8 | 1 | 1 | 4 | 4 | 1.90 | 0 | 0 | 0 | 0 | Change of air-sac, left: - (chickens) [5]: 8; Change of air-sac, right: + (chickens) [5]: 0; Change of air-sac, right: ++ (chickens) [5]: 0; Change of air-sac, right: +++ (chickens) [5]: 0; Change of air-sac, right: - (chickens) [5]: 8; Isolation, L (left air-sac) [5]: 6; Isolation, R (right air-sac) [5]: 5; Isolation, T (trachea) [5]: 6; Mycoplasma Isolated Chickens [5]: 6; Index of Isolation [5]: 4.20; Index of Disease [5]: 0; MIC [6]: 0.78 µg/mL (≈ 3.07 µM)
1.56 (≈ 7.76 µM) | 0.2 (≈ 0.995 µM) | 0.39 (≈ 1.94 µM) | O=c1c(O)ccccc1Br [Compound 24, 7-Bromotropolone] | 0 | 0 | 0 | 8 | 0 | 0 | 0 | 8 | 4 | 1 | 7 | 7 | 2.70 | 0 | 0 | 0 | 0 | Change of air-sac, left: - (chickens) [5]: 8; Change of air-sac, right: + (chickens) [5]: 0; Change of air-sac, right: ++ (chickens) [5]: 0; Change of air-sac, right: +++ (chickens) [5]: 0; Change of air-sac, right: - (chickens) [5]: 8; Isolation, L (left air-sac) [5]: 3; Isolation, R (right air-sac) [5]: 3; Isolation, T (trachea) [5]: 5; Mycoplasma Isolated Chickens [5]: 5; Index of Isolation [5]: 2.80; Index of Disease [5]: 0; MIC [6]: 0.78 µg/mL (≈ 3.88 µM)
